We go through one compound from US5489576A, “Therapeutic agent for hemorrhoidal diseases” (Senju Pharmaceutical Co., Ltd., priority 1993, dated 1996).

The LD50 is the dose expected to kill half of the subjects tested. Lower therefore signals greater toxicity.

Structures can show the parent of a compound that is named as a salt.

The test system of one data set is rectal tissues. Briefly: Wound healing accelerating effect on rectal tissues (hydroxyproline content). The following applies: 1% EPC-K, average (n=5). It is filed as in vivo, Male Wistar rats. Here is the method:
Wound Healing Accelerating Effect of Compound (I) on Rectal Tissues
The wound healing accelerating effect of Compound (I) on rectal tissues was examined using the amount of hydroxyproline (Hyp) in tissue as an index.
1. Animals used: Male Wistar rats weighing 150-250 g
2. Test substance: EPC-K added to an oil-in-water cream to 1 w/w %
The rats were fasted for 24 hours and a narrow saw was inserted in the rectum. A wound was made by two reciprocations of the saw in the rectum. The test substance was injected in the rectum once a day by 100 μl beginning immediately after forming of the wound. The rats were exsanguinated to death at 4 hours, 1, 3, 6 or 9 days thereafter and the rectum was removed. The removed rectum was delipidized, shredded and dried. After acid hydrolysis, pH was adjusted and hydroxyproline content was measured by the chloramine T oxidation method.

The subject of the next data set is rectal mucosa. The experiment in a line: Rectal mucosa irritating action. Type of data set: in vivo, Male Wistar rats. The following applies: intrarectal, 5 h; for Irritation potency, Index value: mean ± standard error (n = 6); for Irritation potency, Central value: score 0-4 of Table 1. Here is the method: Rectal Mucosa Irritating Action of Compound (I)
The rectal mucosa irritating action of Compound (I) was examined as in the following.
1. Animals used: Male Wistar rats weighing 135-200 g
2. Test substance: EPC-K added to an oil-in-water type cream
The rats were fasted for 48 hours and the test substance was intrarectally administered. Five hours later, the rats were exsanguinated to death. The rectum was removed and the mucosa was visually observed. The condition of the mucosa was expressed in numerical units according to the evaluation standard shown in Table 1, and a central value and an average value were calculated, based on which the irritation by the test substance was classified according to the evaluation standard for irritation shown in Table 2.

The test system of data set [1] is recto-anal edema induced by a croton oil mixture. Briefly: Suppressive effect on recto-anal edema induced by croton oil mixture. The following applies: 4% EPC-K in petrolatum, 24 h, * p < 0.05 vs control. It is filed as in vivo, Male Wistar rats. On the procedure: Effects of Compound (I) on Models with Hemorrhoidal Disease Induced by Croton Oil Mixture
The suppressive effect of Compound (I) on recto-anal edema induced by a croton oil mixture was examined.
1. Animals used: Male Wistar rats weighing 140-250 g
2. Test substance: EPC-K added to petrolatum base material to 4 w/w %
Composition: distilled water:pyridine:diethyl ether:6% croton oil in diethyl ether solution=1:4:5:10
Preparation: Water and a small amount of diethyl ether were added to pyridine and mixed. Then, a 6% croton oil diethyl ether solution was added and the remaining diethyl ether was added thereto. The mixture was vigorously shaken.
A stype of a swab was impregnated with the croton oil mixture (160 μl) and the entire stype was inserted into the rectum for 10 seconds.
5. Determination of edema
The test substance was administered intrarectally immediately after the induction of inflammation, and the anus was sealed for 4 hours with a clip so as to prevent leaking out of the substance.
At 24 hours after the induction of inflammation, the rats were exsanguinated to death and the weight of the recto-anal part, cut out in 15 mm length from 5 mm from the circular hairline on annal epithelium, was measured. The recto-anal coefficient (RAC=Wra·Wb^-1 ·10^3) was calculated on the basis of the weight of the recto-anal part (Wra) and body weight (Wb) and used as an index of inflammation.

The nature of data set [2]: LD50 in rats (acute toxicity). The following applies: rat, in vivo. From the text: Accordingly, it can be advantageously used for the treatment of hemorrhoidal diseases.
Where [3] appears, read: 0.2% EPC-K in oil-in-water cream.

For `Cc1c(C)c2c(c(C)c1OP(=O)(O)OC1=C(O)[C@@H]([C@@H](O)CO)OC1=O)CCC(C)(CCCC(C)CCCC(C)CCCC(C)C)O2` (mixture of isomers) [EPC-K, L-ascorbic acid DL-α-tocopheryl phosphate diester potassium salt], the “Hydroxyproline content in rectal tissues” value was found to be 19.38 µg/mg in the data set with rectal tissues (4 hr later, control 19.67, normal rectum 22.26); 21.70 µg/mg in the data set with rectal tissues (1 day later, control 19.69, normal rectum 22.26); 24.75 µg/mg with rectal tissues (3 days later, control 23.46, normal rectum 22.26); 25.22 µg/mg in the data set on rectal tissues (6 days later, control 25.63, normal rectum 22.26); 26.53 µg/mg in the data set with rectal tissues (9 days later, control 27.38, normal rectum 22.26). In addition, the figures for the “Irritation potency, Index value” in the data set with rectal mucosa (setting [3]), with rectal mucosa (1% EPC-K in oil-in-water cream) and with rectal mucosa (5% EPC-K in oil-in-water cream) were 0.67 ± 0.42, 0.50 ± 0.34 and 0.83 ± 0.54, respectively. The “Irritation potency, Central value” with rectal mucosa (setting [3]), in the data set with rectal mucosa (1% EPC-K in oil-in-water cream) and with rectal mucosa (5% EPC-K in oil-in-water cream) was 0 each time. Moreover, the Edema suppression in data set [1] is reported as 19.5%. In addition, the “Recto-anal coefficient (RAC)” value in data set [1] (mean ± standard error (n = 10), control 2.36, untreated 0.67) is recorded as 2.03 ± 0.07. In addition, the LD50 in data set [2] (intravenous injection to rats) is not below 100 mg/kg; in data set [2] (oral administration to rats), not below 5000 mg/kg.
